In assay [1] the target is ER (Homo sapiens (Human), UniProt P03372). The assay can be described thus: In-cell western blot analysis of ER for "B" compounds. The format is cell-based. Conditions: 16 hours, read-out: ICW DC50. The gist of the method:
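ER levels given as a percentage of untreated/DMSO-treated wells (100%). Detection used primary antibodies for 2 h at room temperature followed by 680 and 800 nm fluorescent secondaries at 1:1000 for 1 h, read by LI-COR imaging.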

Assay [2] in a line: Cell growth assay (WST-8) for "B" compounds. In kind it is cell-based. Conditions: T47D, read-out: Cell growth Inhibition in T47D cell line IC50. An outline of the steps: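 Four-day compound exposure of cells plated at 1500/well the day before. Read-out is WST-8 (10%, 2.5 h, 37 °C) absorbance at 450 nm, normalized to vehicle control over three independent repeats.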
On the technique in general: Formazan colour is commonly taken as a measure of viable cells.

Molecules are shown by their SMILES. Where two headings read alike, the source gives them in different places.

Chain of ER (P03372 whole entry): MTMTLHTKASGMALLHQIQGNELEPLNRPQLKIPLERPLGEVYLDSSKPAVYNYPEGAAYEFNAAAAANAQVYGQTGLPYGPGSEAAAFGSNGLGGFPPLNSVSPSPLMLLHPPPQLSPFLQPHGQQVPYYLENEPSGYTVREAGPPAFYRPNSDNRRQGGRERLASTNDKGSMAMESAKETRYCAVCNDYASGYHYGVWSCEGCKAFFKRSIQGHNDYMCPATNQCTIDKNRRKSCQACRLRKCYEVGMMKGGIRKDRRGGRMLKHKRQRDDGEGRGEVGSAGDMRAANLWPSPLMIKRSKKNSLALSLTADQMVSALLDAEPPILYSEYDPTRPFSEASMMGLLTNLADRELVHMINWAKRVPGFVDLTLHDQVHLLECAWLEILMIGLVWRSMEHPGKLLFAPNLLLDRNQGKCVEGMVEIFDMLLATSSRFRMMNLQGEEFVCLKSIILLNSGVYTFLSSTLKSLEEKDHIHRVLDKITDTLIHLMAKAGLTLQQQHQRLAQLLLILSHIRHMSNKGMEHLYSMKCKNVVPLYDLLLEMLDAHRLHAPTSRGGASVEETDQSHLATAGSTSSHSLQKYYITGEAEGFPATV

As a reminder, the IC50 is the point on the concentration scale where inhibition reaches its midpoint. Regarding `O=C1CCC(N2Cc3c(ccc4c3OC[C@H]3CN(C[C@H]5CCN(c6ccc([C@@H]7c8ccc(O)cc8CC[C@@H]7c7ccccc7)cc6)C5)CCN43)C2=O)C(=O)N1` (stereo partly drawn) [Compound B216, 3-((R)-7-(((R)-1-(4-((1R,2S)-6-hydroxy-2-phenyl-1,2,3,4-tetrahydronaphthalen-1-yl)phenyl)pyrrolidin-3-yl)methyl)-1-oxo-1,3,5,5a,6,7,8,9-octahydro-2H-pyrazino[1′,2′:4,5][1,4]oxazino[2,3-e]isoindol-2-yl)piperidine-2,6-dione], in assay [1], the DC50 lay within 10 to 100 nM. Further, the IC50 in assay [2] (T47D cell line) is above 10 nM.
With `O=C1CCC(N2Cc3cc4c(cc3C2=O)CC2(C4)CN(C[C@@H]3CCN(c4ccc([C@@H]5c6ccc(O)cc6CC[C@@H]5c5ccccc5)cc4)C3)C2)C(=O)N1` (stereo partly drawn) [Compound B217, 3-(1-(((S)-1-(4-((1R,2S)-6-hydroxy-2-phenyl-1,2,3,4-tetrahydronaphthalen-1-yl)phenyl)pyrrolidin-3-yl)methyl)-1′-oxo-5′,7′-dihydro-1'H-spiro[azetidine-3,6′-cyclopenta[f]isoindol]-2'(3'H)-yl)piperidine-2,6-dione], in assay [1], the DC50 is above 100 nM. For the same compound, the IC50 in assay [2] (T47D cell line) lay within 1 to 10 nM.
With `O=C1CCC(N2Cc3c(ccc4c3OC[C@H]3CN(CC(=O)N5CC(Nc6ccc([C@@H]7c8ccc(O)cc8CC[C@@H]7c7ccccc7)cc6)C5)CCN43)C2=O)C(=O)N1` (stereo partly drawn) [Compound B220, 3-((R)-7-(2-(3-((4-((1R,2S)-6-hydroxy-2-phenyl-1,2,3,4-tetrahydronaphthalen-1-yl)phenyl)amino)azetidin-1-yl)-2-oxoethyl)-1-oxo-1,3,5,5a,6,7,8,9-octahydro-2H-pyrazino[1′,2′:4,5][1,4]oxazino[2,3-e]isoindol-2-yl)piperidine-2,6-dione], the DC50 in assay [1] was above 100 nM. Besides, in assay [2] (T47D cell line), the IC50 is below 1 nM.
As for `O=C1CC[C@H](NC(=O)c2ccc3c(n2)OC[C@H]2CN(CC4CCN(c5ccc([C@@H]6c7ccc(O)cc7CC[C@@H]6c6ccccc6)cc5)CC4)CCN32)C(=O)N1` [Compound B224, (R)-N-((S)-2,6-dioxopiperidin-3-yl)-3-((1-(4-((1R,2S)-6-hydroxy-2-phenyl-1,2,3,4-tetrahydronaphthalen-1-yl)phenyl)piperidin-4-yl)methyl)-1,2,3,4,4a,5-hexahydropyrazino[1,2-d]pyrido[2,3-b][1,4]oxazine-8-carboxamide], the DC50 in assay [1] was above 100 nM. Also, the IC50 in assay [2] (T47D cell line) fell in the range of 1 to 10 nM.
For `O=C1CC[C@H](NC(=O)c2ccc3c(n2)OC[C@H]2CN(CC4CC5(CCN(c6ccc([C@@H]7c8ccc(O)cc8CC[C@@H]7c7ccccc7)cc6)CC5)C4)CCN32)C(=O)N1` [Compound B225, (R)-N-((S)-2,6-dioxopiperidin-3-yl)-3-((7-(4-((1R,2S)-6-hydroxy-2-phenyl-1,2,3,4-tetrahydronaphthalen-1-yl)phenyl)-7-azaspiro[3.5]nonan-2-yl)methyl)-1,2,3,4,4a,5-hexahydropyrazino[1,2-d]pyrido[2,3-b][1,4]oxazine-8-carboxamide], in that order: 10 to 100 nM and 1 to 10 nM.
Take `O=C1CC[C@H](N2Cc3cc4c(cc3C2=O)OC[C@@H]2CN(CC3COC5(CCN(c6ccc([C@@H]7c8ccc(O)cc8CC[C@@H]7c7ccccc7)cc6)CC5)C3)CCN42)C(=O)N1` (stereo partly drawn) [Compound B227, (3S)-3-((4aS)-3-((8-(4-((1R,2S)-6-hydroxy-2-phenyl-1,2,3,4-tetrahydronaphthalen-1-yl)phenyl)-1-oxa-8-azaspiro[4.5]decan-3-yl)methyl)-8-oxo-1,2,3,4,4a,5,8,10-octahydro-9H-pyrazino[1′,2′: 4,5][1,4]oxazino[2,3-f]isoindol-9-yl)piperidine-2,6-dione]: in assay [1], the DC50 is below 10 nM. In addition, in assay [2] (T47D cell line), the concentration for half-maximal inhibition (IC50) is below 1 nM.
`O=C1CCC(N2Cc3c(ccc4c3OCC43CCN(CC4CCC5(CC4)CN(c4ccc([C@@H]6c7ccc(O)cc7CC[C@@H]6c6ccccc6)cc4)C5)CC3)C2=O)C(=O)N1` (stereo partly drawn) [Compound B228, 3-(1′-((2-(4-((1R,2S)-6-hydroxy-2-phenyl-1,2,3,4-tetrahydronaphthalen-1-yl)phenyl)-2-azaspiro[3.5]nonan-7-yl)methyl)-6-oxo-6,8-dihydro-2H,7H-spiro[furo[2,3-e]isoindole-3,4′-piperidin]-7-yl)piperidine-2,6-dione]: the DC50 in assay [1] is below 10 nM. In addition, in assay [2], the IC50 is 1 to 10 nM.
Taken in the same sequence, the figures for `O=C1CCC(N2Cc3c(ccc4c3OCC43CCN(CC4COC5(CCN(c6ccc([C@@H]7c8ccc(O)cc8CC[C@@H]7c7ccccc7)cc6)CC5)C4)CC3)C2=O)C(=O)N1` (stereo partly drawn) [Compound B229, 3-(1′-((8-(4-((1R,2S)-6-hydroxy-2-phenyl-1,2,3,4-tetrahydronaphthalen-1-yl)phenyl)-1-oxa-8-azaspiro[4.5]decan-3-yl)methyl)-6-oxo-6,8-dihydro-2H,7H-spiro[furo[2,3-e]isoindole-3,4′-piperidin]-7-yl)piperidine-2,6-dione] were 10 to 100 nM and 1 to 10 nM.
Regarding `O=C1CCC(N2Cc3c(ccc4c3OC[C@H]3CN(CC5COC6(C5)CN(c5ccc([C@@H]7c8ccc(O)cc8CC[C@@H]7c7ccccc7)cc5)C6)CCN43)C2=O)C(=O)N1` (stereo partly drawn) [Compound B230, 3-((5aR)-7-((2-(4-((1R,2S)-6-hydroxy-2-phenyl-1,2,3,4-tetrahydronaphthalen-1-yl)phenyl)-5-oxa-2-azaspiro[3.4]octan-7-yl)methyl)-1-oxo-1,3,5,5a,6,7,8,9-octahydro-2H-pyrazino[1′,2′:4,5][1,4]oxazino[2,3-e]isoindol-2-yl)piperidine-2,6-dione], the DC50 in assay [1] is below 10 nM. Moreover, the IC50 in assay [2] (T47D cell line) is below 1 nM.
Turning to `O=C1CCC(N2Cc3cc4c(cc3C2=O)OC[C@@H]2CN(CC3COC5(C3)CN(c3ccc([C@@H]6c7ccc(O)cc7CC[C@@H]6c6ccccc6)cc3)C5)CCN42)C(=O)N1` (stereo partly drawn) [Compound B231, 3-((4aS)-3-((2-(4-((1R,2S)-6-hydroxy-2-phenyl-1,2,3,4-tetrahydronaphthalen-1-yl)phenyl)-5-oxa-2-azaspiro[3.4]octan-7-yl)methyl)-8-oxo-1,2,3,4,4a,5,8,10-octahydro-9H-pyrazino[1′,2′:4,5][1,4]oxazino[2,3-f]isoindol-9-yl)piperidine-2,6-dione], in assay [1], the DC50 fell in the range of 10 to 100 nM. In addition, the IC50 in assay [2] (T47D cell line) is below 1 nM.
Consider `O=C1CCC(N2Cc3c(ccc4c3OC[C@H]3CN(CC5CC6(CCN(c7ccc([C@@H]8c9ccc(O)cc9CC[C@@H]8c8ccccc8)cc7)C6)C5)CCN43)C2=O)C(=O)N1` (stereo partly drawn) [Compound B232, 3-((R)-7-((6-(4-((1R,2S)-6-hydroxy-2-phenyl-1,2,3,4-tetrahydronaphthalen-1-yl)phenyl)-6-azaspiro[3.4]octan-2-yl)methyl)-1-oxo-1,3,5,5a,6,7,8,9-octahydro-2H-pyrazino[1′,2′:4,5][1,4]oxazino[2,3-e]isoindol-2-yl)piperidine-2,6-dione], for which the DC50 in assay [1] is above 100 nM. Also, in assay [2] (T47D cell line), the IC50 fell in the range of 1 to 10 nM.
Turning to `O=C1CCC(N2Cc3cc4c(cc3C2=O)OC[C@@H]2CN(CC3CC5(CCN(c6ccc([C@@H]7c8ccc(O)cc8CC[C@@H]7c7ccccc7)cc6)C5)C3)CCN42)C(=O)N1` (stereo partly drawn) [Compound B233, 3-((S)-3-((6-(4-((1R,2S)-6-hydroxy-2-phenyl-1,2,3,4-tetrahydronaphthalen-1-yl)phenyl)-6-azaspiro[3.4]octan-2-yl)methyl)-8-oxo-1,2,3,4,4a,5,8,10-octahydro-9H-pyrazino[1′,2′:4,5][1,4]oxazino[2,3-f]isoindol-9-yl)piperidine-2,6-dione], the DC50 in assay [1] was above 100 nM. Further, in assay [2] (T47D cell line), the IC50 lay within 1 to 10 nM.
As for `CN1C[C@@H]2CN(CC3COC4(CCN(c5ccc([C@@H]6c7ccc(O)cc7CC[C@@H]6c6ccccc6)cc5)CC4)C3)CCN2c2cc3c(cc21)C(=O)N(C1CCC(=O)NC1=O)C3` (stereo partly drawn) [Compound B234, 3-((4aS)-3-((8-(4-((1R,2S)-6-hydroxy-2-phenyl-1,2,3,4-tetrahydronaphthalen-1-yl)phenyl)-1-oxa-8-azaspiro[4.5]decan-3-yl)methyl)-6-methyl-8-oxo-2,3,4,4a,5,6,8,10-octahydropyrazino[1,2-a]pyrrolo[3,4-g]quinoxalin-9(1H)-yl)piperidine-2,6-dione], the DC50 in assay [1] was above 100 nM. Also, the IC50 in assay [2] (T47D cell line) was below 1 nM.
Consider `O=C1CCC(N2C(=O)c3cc4c(cc3C2=O)CN(CC2COC3(CCN(c5ccc([C@@H]6c7ccc(O)cc7CC[C@@H]6c6ccccc6)cc5)CC3)C2)C4)C(=O)N1` (stereo partly drawn) [Compound B235, 2-(2,6-dioxopiperidin-3-yl)-6-((8-(4-((1R,2S)-6-hydroxy-2-phenyl-1,2,3,4-tetrahydronaphthalen-1-yl)phenyl)-1-oxa-8-azaspiro[4.5]decan-3-yl)methyl)-6,7-dihydropyrrolo[3,4-f]isoindole-1,3(2H,5H)-dione], for which, in assay [1], the DC50 is above 100 nM. The IC50 in assay [2] (T47D cell line) is 1 to 10 nM.
For the compound `O=C1CC[C@H](NC(=O)c2ccc3c(n2)OC[C@H]2CN(CC4COC5(CCN(c6ccc([C@@H]7c8ccc(O)cc8CC[C@@H]7c7ccccc7)cc6)CC5)C4)CCN32)C(=O)N1` (stereo partly drawn) [Compound B236, (4aR)-N-((S)-2,6-dioxopiperidin-3-yl)-3-((8-(4-((1R,2S)-6-hydroxy-2-phenyl-1,2,3,4-tetrahydronaphthalen-1-yl)phenyl)-1-oxa-8-azaspiro[4.5]decan-3-yl)methyl)-1,2,3,4,4a,5-hexahydropyrazino[1,2-d]pyrido[2,3-b][1,4]oxazine-8-carboxamide], the DC50 in assay [1] fell in the range of 10 to 100 nM. Further, the IC50 in assay [2] (T47D cell line) was below 1 nM.

The values are drawn from patent publication US20260028354A1, “TETRAHYDRONAPHTHALENE DERIVATIVES AS ESTROGEN RECEPTOR DEGRADERS” (REGENT OF THE UNIVERSITY OF MICHIGAN, priority 2022, published 2026).
